These results are taken from US10830770B2, “Cell death assay” (HQ MEDICAL (NETHERLANDS) B.V., priority 2012, dated 2020).

The subject of the first assay is 4T1-luc2 mouse breast cancer cells. Description: dry-ice dead-cells-assay (in vitro model of cryo-induced cell death). It is filed as cell-based. The note with it: Trypan Blue 0.2% in culture medium, 15 min, FIG. 4A. How it is done: The dead cell targeting properties of seven HQ medical compounds (HQ1-7) were assessed in a newly developed in vitro assay of living and dead 4T1-luc2 mouse breast cancer cells. For this 4T1-luc2 cells were cultured to confluence in 12-well plates and a local area of cell death was induced by applying a bar of dry ice to the bottom of the culture well. Subsequently, the cells were incubated with the test compounds, washed and imaged with the Lycor Odyssey.
4T1-Luc cells were seeded onto individual wells from a 12-well cell culture plate and allowed to grow to confluence in RPMI media supplemented with 10% fetal bovine serum. 4T1-luc2 mouse breast cancer cells were used as the adherence of these cells to the bottom of the culture well remains strong after dry-ice treatment. To initiate cryo-induced cell death, media was discarded and dry-ice was applied to the bottom center of each individual well for 15 sec. Subsequently, fresh medium with different concentrations of the HQ medical compounds (HQ1-7) were added and cells were incubated at 37° C. for 15 min. After incubation, the media were discarded and the cells were washed twice with serum free medium and 0.5 ml fresh RPMI was added to each well. Cells were then visualized using a Licor Odyssey equipped with 700 and 800 nm diode laser. Luciferin ([…]) was also added to each well and fluorescence and bioluminescence images were acquired using an IVIS Spectrum (fluorescence: excitation filter: 710 nm, emission filter: 820 nm, exposure time: 90 s, bin: 8, f/stop: 2, field of view: 12.9 cm) (bioluminescence: open filter, exposure time: 30 s, bin: 8, f/stop: 1, field of view: 12.9 cm). Some culture wells were also stained for 15 min with Trypan Blue (0.2% in culture medium) to confirm cell death.
Confluent cultures of 4T1-luc2 breast cancer cells were treated for 15 sec with a focal application of dry-ice to the bottom center of a culture well and were used to examine the dead cell binding properties of the seven HQ medical NIRF compounds. First, however, in order to confirm the presence of a local area of dead cells, the dry-ice treated cultures were incubated with Trypan blue or were treated with luciferin and measured for bioluminescence.
HQ medical #1-7 were examined for their imaging potential of dead cells in the present dry-ice dead-cells-assay. The cells were incubated with the HQ medical compounds with concentrations ranging from 0.5 to 0.001 uM. HQ medical #4-7, all specifically bound to dead cells (FIGS. 5A and B). […] For HQ medical #6 and 7, a signal from the dead cell area could be detected at least 50-fold higher concentrations.
Regarding `Cc1cc(-c2ccc(/N=N/c3c(S(=O)(=O)O)cc4cc(S(=O)(=O)O)cc(N)c4c3O)c(C)c2)ccc1/N=N/c1c(S(=O)(=O)O)cc2cc(S(=O)(=O)O)cc(N)c2c1O` [Trypan Blue], the “uptake of Trypan Blue at site of focal dry-ice treatment compared to viable cells in the periphery” value is recorded as “increased uptake”.

Still in this assay, the particulars now being: dead vs living cells.
With `CCN1c2cc3c(cc2C(C)=CC1(C)C)C(=CC=CC1=[N+](CCCS(=O)(=O)[O-])c2ccc(S(=O)(=O)[O-])cc2C1(C)CCCC(=O)O)C=C(c1ccccc1)O3.[Na+]` (stereo not drawn) [DY-676], the “binding to dead cells” value is “specific binding to dead cells”.

Consider `CCN1c2cc3c(cc2C(C)=CC1(C)C)/C(=C/C=C/C=C/C1=[N+](CCCS(=O)(=O)[O-])c2ccc(S(=O)(=O)[O-])cc2C1(C)CCCC(=O)O)C=C(c1ccccc1)O3.[Na+]` (stereo not drawn) [DY-776], for which the “binding to dead cells” value was “specific binding to dead cells”.

Consider `CC1(C)C(/C=C/C=C/C=C/C=C2\N(CCCCS(=O)(=O)[O-])c3ccc4ccccc4c3C2(C)C)=[N+](CCCCS(=O)(=O)[O-])c2ccc3ccccc3c21.[Na+]` [ICG], for which the “binding to dead cells” value is “specific binding to dead cells”.

Consider CY5.5, for which the “binding to dead cells” value is reported as “specific binding to dead cells”.

On to `CC[N+](CC)=c1ccc2c(C(C)(C)C)cc(/C=C/C=C3/N(CCCS(=O)(=O)[O-])c4ccc(S(=O)(=O)[O-])cc4C3(C)CCCC(=O)O)oc-2c1.[Na+]` (stereo not drawn) [DY-681], for which the “binding to dead cells” value is listed as “specific binding to dead cells”.

Turning to `CC1(C)C(=CC=C2CCCC(C=CC3=[N+](CCC[N+](C)(C)C)c4ccc(S(=O)(=O)O)cc4C3(C)C)=C2Oc2ccc(CCC(=O)O)cc2)N(CCC[N+](C)(C)C)c2ccc(S(=O)(=O)O)cc21` [ZW800], the “binding to dead cells” value was “specific binding to dead cells”.

In the case of `CCN1C(=CC=CC2=[N+](CCCCCC(=O)O)c3ccc(S(=O)(=O)O)cc3C2(C)C)C(C)(C)c2cc(S(=O)(=O)[O-])ccc21` [CY3], the “binding to dead cells” value was “specific binding to dead cells”.

For `CCN1C(=CC=CC=CC=CC2=[N+](CCCCCC(=O)O)c3ccc(S(=O)(=O)O)cc3C2(C)C)C(C)(C)c2cc(S(=O)(=O)[O-])ccc21` [CY7], the “binding to dead cells” value is given as “specific binding to dead cells”.

On to `CC1(C)C(/C=C/C2=C(Oc3ccc(S(=O)(=O)O)cc3)C(=C/C=C3/N(CCCCS(=O)(=O)O)c4ccc(S(=O)(=O)[O-])cc4C3(C)C)/CCC2)=[N+](CCCCCC(=O)O)c2ccc(S(=O)(=O)O)cc21` [CW 800], for which the “binding to dead cells” value was “specific binding to dead cells”.

Take `CCN1/C(=C/C=C/C=C/C2=[N+](CCCCCC(=O)O)c3ccc(S(=O)(=O)O)cc3C2(C)C)C(C)(C)c2cc(S(=O)(=O)[O-])ccc21` [CY5]: the “binding to dead cells” value is on record as “specific binding to dead cells”.

As for `CC[N+](CC)=c1ccc2c(/C=C/C=C/C=C3/N(CCCS(=O)(=O)[O-])c4ccc(S(=O)(=O)[O-])cc4C3(C)CCCC(=O)O)cc(C(C)(C)C)oc-2c1.[Na+]` (stereo not drawn) [DY-731], the “binding to dead cells” value is “specific binding to dead cells”.
